# Data published in US20040077636A1, “Restricting reinstatement of drug use” (priority 2000, published 2004).
# “Also recorded” adds a separate entry of the source.
# Key:
# [1] = pre-treatment; literature reports; cited from earlier work
# [2] = test system: heroin-addicted rats; conditions: Euro. J. Neurosci. 12, 292-302, 2000; cited from earlier work
# [3] = Footshock stress-induced reinstatement of cocaine seeking; type: in vivo; conditions: 0.150 mg/kg or 0.2 mg/kg
# [4] = test system: Male Wistar rats; assay: Operant alcohol self-administration; type: in vivo; conditions: average of two consecutive sessions, vs saline
# Experimental: Animals: Male Wistar rats (Charles River, Montreal; weighing about 150-200 g. at the start of the experiments) were individually housed. Food and water were freely available in the home cages for 23 h/day. Food was not available during the 30 to 60 min daily session (see below). The temperature was maintained at 21±1° C. and the lights were on from 7 a.m. to 7 p.m. Rats were initially trained to consume alcohol in a limited access procedure (Linseman, 1987). The rats were given access to an alcohol solution and water in modified Richter tubes for 30 min/day in drinking cages. Alcohol solutions were provided in escalating concentrations: 3% w/v for the first 5 days 6% for the next 8 days and 12% for the last 10-12 days. Rats that consumed less than 0.4 g/kg per session during the last 10-12 days were excluded. All procedures were done in accordance with the guidelines of the Canadian Council on Animals Care and the ‘principle of laboratories animal care’ (NIH publication No. 85-23, revised 1985), and were approved by the local Animal Care Committee. […]
# Analysis of variance with or without repeated measures were employed to analyse the data. […] In the first experiment, the average amounts of alcohol self-administered over a period of two days were used to quantify the effects of lofexidine treatment on alcohol self-administration. […]
# [5] = test system: Male Wistar rats; assay: Footshock stress-induced reinstatement of alcohol seeking; type: in vivo; conditions: for reinstatement of alcohol seeking (responses on the active lever after footshock): vs saline, p<0.05
# Experimental: Animals: Male Wistar rats (Charles River, Montreal; weighing about 150-200 g. at the start of the experiments) were individually housed. Food and water were freely available in the home cages for 23 h/day. Food was not available during the 30 to 60 min daily session (see below). The temperature was maintained at 21±1° C. and the lights were on from 7 a.m. to 7 p.m. Rats were initially trained to consume alcohol in a limited access procedure ([…], 1987). The rats were given access to an alcohol solution and water in modified Richter tubes for 30 min/day in drinking cages. Alcohol solutions were provided in escalating concentrations: 3% w/v for the first 5 days 6% for the next 8 days and 12% for the last 10-12 days. Rats that consumed less than 0.4 g/kg per session during the last 10-12 days were excluded. All procedures were done in accordance with the guidelines of the Canadian Council on Animals Care and the 'principle of laboratories animal care' (NIH publication No. 85-23, revised 1985), and were approved by the local Animal Care Committee. Apparatus: The alcohol self-administration system was built locally. Each operant chamber was equipped with two levers, symmetrically centered on the side panel. Responding on one lever (the active lever) activated the infusion pump (Razel Sci. Stamford, Conn., USA). […] During the infusion, a stimulus light above the active lever was turned on for 6 s. […] The grid floor of the operant cambers was connected to electric shock generators (Med Associates, Georgia, Vt., USA). Training and extinction of alcohol self-administration: Operant self-administration of alcohol was initiated on a fixed ration-1 schedule of reinforcement (FR-1, each lever press is reinforced) for 60 min per day for 5-7 days per week. Responding on the FR-1 schedule was maintained for 10-14 sessions. The requirement for alcohol delivery was then increased to FR-2 for five sessions. Subsequently, the schedule requirement was increased to an FR-3 schedule for 8-12 days until the rats obtained three days of stable drug taking (variability of less than 20% of the mean). During extinction sessions, presses on the previously active lever had no programmable consequences. […] Test for Reinstatement: Tests were conducted under extinction conditions. Intermittent footshock (0.8 mA; 0.5 s ON; a mean OFF period of 40 s; a range of 10-70 s) was administered for a period of 10 min just prior to the test sessions. Footshock was delivered through a scrambler to the stainless steel grid floor of the operant chambers. […] When the animals achieved extinction criterion, the effect of pre-treatment with lofexidine on footshock stress-induced reinstatement of alcohol seeking was determined as described above. […]
# [6] = test system: NE release; conditions: doses employed in the present study; cited from earlier work
# [7] = test system: imidazoline-type 1 receptors; conditions: cited from earlier work
# [8] = in vivo; cited from earlier work
# [9] = test system: Male Wistar rats; assay: Extinction of alcohol self-administration behaviour; type: in vivo; conditions: for responding on the active lever, second day of extinction: among the three groups
# Experimental: Animals: Male Wistar rats (Charles River, Montreal; weighing about 150-200 g. at the start of the experiments) were individually housed. Food and water were freely available in the home cages for 23 h/day. Food was not available during the 30 to 60 min daily session (see below). The temperature was maintained at 21±1° C. and the lights were on from 7 a.m. to 7 p.m. Rats were initially trained to consume alcohol in a limited access procedure (Linseman, 1987). The rats were given access to an alcohol solution and water in modified Richter tubes for 30 min/day in drinking cages. Alcohol solutions were provided in escalating concentrations: 3% w/v for the first 5 days 6% for the next 8 days and 12% for the last 10-12 days. Rats that consumed less than 0.4 g/kg per session during the last 10-12 days were excluded. All procedures were done in accordance with the guidelines of the Canadian Council on Animals Care and the ‘principle of laboratories animal care’ (NIH publication No. 85-23, revised 1985), and were approved by the local Animal Care Committee.
# Apparatus: The alcohol self-administration system was built locally. Each operant chamber was equipped with two levers, symmetrically centered on the side panel. Responding on one lever (the active lever) activated the infusion pump (Razel Sci. Stamford, Conn., USA). […] During the infusion, a stimulus light above the active lever was turned on for 6 s. […] The grid floor of the operant cambers was connected to electric shock generators (Med Associates, Georgia, Vt., USA).
# Training and extinction of alcohol self-administration: Operant self-administration of alcohol was initiated on a fixed ration-1 schedule of reinforcement (FR-1, each lever press is reinforced) for 60 min per day for 5-7 days per week. Responding on the FR-1 schedule was maintained for 10-14 sessions. The requirement for alcohol delivery was then increased to FR-2 for five sessions. Subsequently, the schedule requirement was increased to an FR-3 schedule for 8-12 days until the rats obtained three days of stable drug taking (variability of less than 20% of the mean). […]
# [10] = humans; cited from earlier work
compound,measurement,setting,value
Cc1csc(Cl)c1NC1=NCCN1 [tiamedine],alcohol consumption,[1],reduction in alcohol consumption
N=C(N)NC(=O)Cc1c(Cl)cccc1Cl [guanfacine],alcohol consumption,[1],reduction in alcohol consumption
Clc1cccc(Cl)c1N=C1NCCN1 [clonidine],alcohol consumption,[1],reduction in alcohol consumption
same,foot-shock-induced reinstatement of heroin-seeking,[2],effective
"CC(Oc1c(Cl)cccc1Cl)C1=NCCN1 (stereo not drawn) [lofexidine, Lofexidine]",footshock stress-induced reinstatement of cocaine seeking,[3],attenuation; also recorded: suppressed
same,alcohol self-administration (amount of alcohol self-administered during 1-hour session),[4]; 0.05 mg/kg IP 1 h before session,no significant differences; also recorded: did not reach statistical significance
same,alcohol self-administration (amount of alcohol self-administered during 1-hour session),"[4]; 0.1 mg/kg IP 1 h before session, p<0.05",significantly lower; also recorded: significantly suppresses
same,reinstatement of alcohol seeking (responses on the active lever after footshock),[5]; 0.05 mg/kg IP 1 h before 10 min intermittent footshock,significantly suppressed
same,reinstatement of alcohol seeking (responses on the active lever after footshock),[5]; 0.1 mg/kg IP 1 h before 10 min intermittent footshock,significantly suppressed
same,reinstatement of alcohol seeking (responses on the active lever after footshock),[5]; 0.2 mg/kg IP 1 h before 10 min intermittent footshock,significantly suppressed
same,reinstatement of alcohol seeking,"[5]; doses ranging from 0.05 to 0.2 mg/kg, intermittent footshock stress",completely suppressed
same,stress induced NE release in the pre-frontal cortex and amygdala,[6],block
same,affinity for imidazoline-type 1 (I2) receptors,[7],high affinity
same,hypotensive effect,[8],minimal hypotensive effect
same,"responding on the active lever, second day of extinction",[9]; 0.05 mg/kg IP daily,no significant differences
same,"responding on the active lever, first day of extinction","[9]; 0.1 mg/kg IP daily 1 h before session, vs saline and lower dose group",significantly lower; also recorded: significant decrease
same,"responding on the active lever, second day of extinction",[9]; 0.1 mg/kg IP daily,no significant differences
same,"adverse side effects compared with clonidine, in particular hypotensive effects",[10],fewer adverse side effects
